The test system of the assay is dextran sodium sulfate-induced ulcerative colitis in rats. Kind of assay: Drug efficacy on dextran sodium sulfate-induced ulcerative colitis in rats (erosion area of the large intestinal mucosa). The format is in vivo, rat. The note with it: for erosion area / inhibition rate (erosion area): 14 days; for erosion area: DSS colitis rats, mean±standard error, control 330.3±15.4; for inhibition rate (erosion area): vs control group. The method, then: The test of drug efficacy of a TAFIa inhibitor on dextran sodium sulfate-induced ulcerative colitis in rats will be described below. This test was conducted by commissioning to NISSEI BILIS Co., Ltd.
A TAFIa inhibitor, (2S)-5-amino-2-{[1-(trans-4-methylcyclohexyl)-1H-imidazol-4-yl]methyl}valeric acid p-toluenesulfonate anhydride (hereinafter referred to as “compound A”) was dissolved in a 0.5% aqueous sodium carboxymethylcellulose solution (hereinafter referred to as “CMC-Na”) to prepare a dosing solution for oral administration of 0.6, 2, 6 and 20 mg/mL. The dosage was determined by conversion into a free form with a conversion factor of 0.6301. The chemical structure of compound A is as follows: […]
7-Week old male LEW/SsN Slc rats (Japan SLC, Inc.) were allowed to drink 3% dextran sodium sulfate (hereinafter referred to as “DSS”) freely to create ulcerative colitis models. Individuals meeting selection criteria for model animals shown in 1-3 below were selected followed by switching to free drinking of 1% aqueous DSS solution to maintain the ulcerative colitis models.
Thereafter, animals that met the selection criteria were selected.
The tests were conducted in two separate groups (the first half: 5 animals/group; the second half: 5 animals/group). The untreated individuals and the individuals meeting the above selection criteria were selected as adopted animals, and grouped into groups of 5 animals/group with the body weight as a main parameter and the hemoglobin concentration as a secondary parameter, according to stratified randomized assignment so as not to cause a difference in the average value among the groups (the total of two tests: 10 animals/group).
Administration route: Oral administration
Administration volume: 5 mL/kg
[…] Administration was conducted by masking the test groups (that is, individual identification numbers were recorded in the animal cards, and administration was conducted in a blinded manner). Note that the administration on the selection day (the first day of administration) was conducted only once in the afternoon.
Each of animals was fasted from the end of the final administration. On the day of dissection, approximately 3 mL of blood was collected from the abdominal aorta under anesthesia with pentobarbital sodium (30 mg/kg, i.p.) by using a polypropylene disposable syringe and an injection needle. Immediately after blood collection, the large intestine (the colon and the rectum) was isolated and immersed in physiological saline kept warm at approximately 37° C., and the length of the large intestine was measured in a relaxed state. Thereafter, a 10% neutral buffered formalin solution was infused into the large intestine, and the large intestine was immersed in physiological saline with the lumen expanded and temporarily fixed for 1 hour or more. After temporary fixation, the large intestine was dissected along the mesentery attachment site, immersed in a stretched state in a 10% neutral buffered formalin solution, and fixed for 1 week or more. The fixed large intestine specimen was washed with running water for approximately 5 minutes, further with distilled water three times, and then immersed in a 3% aqueous acetic acid solution for approximately 5 minutes as a pretreatment.
The large intestine specimen stained with a 1% Alcian blue solution was photographed. The photograph was captured on an image analysis device (general-purpose image processor WinROOF, Version 5.7, MITANI CORPORATION), and the area of deep blue part was measured. This measurement value was used as the erosion area.
The erosion area was expressed as mean±standard error. A significant difference test between the control group and each group was conducted by a homoscedasticity test (F-test) followed by Student's t test in the case of homoscedasticity and by Aspin-Welch's t test in the case of heteroscedasticity (significance level: 5%).

Each structure is given as a SMILES string.

As for `O=C(O)c1cc(/N=N/c2ccc(S(=O)(=O)Nc3ccccn3)cc2)ccc1O` [SASP, Salazosulfapyridine, reference compound], for the setting “300 mg/kg orally once a day”, the erosion area stood at 261.6±22.7 mm^2 and the “inhibition rate (erosion area)” value stood at 20.8%. Under “300 mg/kg orally once a day, Student's t test P<0.05”, the “erosion area compared to the control group (significance)” value was “significant reduction in the erosion area”.
Take `C[C@H]1CC[C@H](n2cnc(C[C@H](CCCN)C(=O)O)c2)CC1.Cc1ccc(S(=O)(=O)O)cc1` [compound A, (2S)-5-amino-2-{[1-(trans-4-methylcyclohexyl)-1H-imidazol-4-yl]methyl}valeric acid p-toluenesulfonate anhydride]: the “erosion area compared to the control group (significance)” value is, setting by setting: (3 mg/kg orally twice a day) “No significant difference”; (10 mg/kg orally twice a day, Student's t test P<0.05) “significant reduction in the erosion area”; (30 mg/kg orally once a day, Student's t test P<0.01) “significant reduction in the erosion area”; (30 mg/kg orally twice a day, Student's t test P<0.01) “significant reduction in the erosion area”; (100 mg/kg orally twice a day, Student's t test P<0.01) “significant reduction in the erosion area”. Besides, the erosion area is listed as 291.8±13.1 mm^2 (3 mg/kg orally twice a day); 281.6±11.1 mm^2 (10 mg/kg orally twice a day); 264.0±7.9 mm^2 (30 mg/kg orally once a day); 262.89±13.9 mm^2 (30 mg/kg orally twice a day); 261.9±12.7 mm^2 (100 mg/kg orally twice a day). The “inhibition rate (erosion area)” value was determined as 11.7% (3 mg/kg orally twice a day); 14.7% (10 mg/kg orally twice a day); 20.1% (30 mg/kg orally once a day); 20.4% (30 mg/kg orally twice a day); 20.7% (100 mg/kg orally twice a day). For the same compound, the “reduction effect of the erosion area (overall conclusion)” value (rat ulcerative colitis model) is recorded as “significant reduction effect of the erosion area”.

Source of the values: patent US20190117624A1, “THERAPEUTIC AGENT FOR INFLAMMATORY BOWEL DISEASES” (DAIICHI SANKYO COMPANY, LIMITED, priority 2016, published 2019).
